Measured values taken from patent US20040146585A1, “Use of thiol-based compositions in treating chemotherapeutic agent-induced thrombocytopenia” (Oregon Health & Science University, priority 2002, published 2004).

Tested on: patients with malignant brain tumors
Excerpt: Blood/bone marrow toxicity data from patients with malignant brain tumors treated with carboplatin-based regimens with or without delayed high-dose STS were graded in accordance with National Cancer Institute Common Toxicity Criteria (NCI CTC) (version 2.0).
Treatment Regimen. Patients with a variety of malignant brain tumor histologies, including metastases to the brain, were eligible for treatment. Patients who had previously undergone central nervous system or systemic radiotherapy or chemotherapy were eligible, however 2 weeks must have elapsed since prior radiotherapy and 4 weeks since prior chemotherapy. Patients were required to have normal hematologic, renal and hepatic function.
The BBBD procedure was done on two consecutive days, approximately every 4 weeks for up to 12 months. Mannitol (25%) was infused (5-10 cc/sec) into the appropriate internal carotid or vertebral artery, depending on tumor location, for 30 seconds. The combination chemotherapy regimen consisted of cyclophosphamide (330 Mg/m^2/day×2 days; total dose, 660 mg/m^2) (i.v.) beginning approximately 20 minutes before the mannitol infusion, carboplatin (200 mg/m^2/day×2 days; total dose, 400 Mg/m^2) (i.a.) administered over 10 minutes, within 5 minutes after the mannitol, and etoposide (i.v.) or etoposide phosphate (200 mg/m^2/day×2 days; total dose, 400 mg/m^2) (i.a. or i.v.). Patients received granulocyte-colony stimulating factor (G-CSF) (5 mcg/kg) for 10 days after chemotherapy or until the absolute neutrophil count was greater than 1000/μL.
STS was available as a 25% (250 mg/ml) solution. Dose was determined (16 or 20 grams/m^2) and mixed with an equivalent amount of sterile water (1 ml: 1 ml) for infusion. […] The most commonly used regimen was benadryl (12.5 mg), dexamethasone (6 mg), and if needed, ativan (0.5-1.0 mg), i.v. 30-45 minutes before STS.
STS was administered i.v. over about 15 minutes. The number of STS doses the patient received depended on the patient baseline hearing status, and whether they experienced an ototoxic shift during treatment. Patients treated with BBBD/STS received STS in one dose (20 grams/m^2) 4 hours after carboplatin (n=10), or two doses (20 grams/m^2 at 4 hrs, and 16 grams/m^2 at 8 hours) after carboplatin (n=19).
Because malignant brain tumor patients are at risk for intracerebral hemorrhage, patients underwent platelet transfusion when platelet count was <20×10^3/mm^3. Following a platelet transfusion, on subsequent chemotherapy courses the carboplatin dose was reduced 25%.
Data Analysis. Blood/bone marrow toxicity data were graded in accordance with NCI CTC and analyzed in the following […] treatment groups: 1) patients treated with carboplatin, cyclophosphamide and etoposide with BBBD and without STS, and 2) patients treated with carboplatin, cyclophosphamide and etoposide phosphate with BBBD and with STS. For both groups, blood/bone marrow toxicity data from all carboplatin-based courses of patients in treatment were included in the analysis.
First, platelet nadirs were plotted for each subject and as means for each of the three study groups. For group comparisons, a mixed, repeated measures analysis of variance (ANOVA) model was fit using the parameter platelet nadir for each course as the measure. Gender, […] (≧70 or not), prior chemotherapy, prior radiation, and age at first course were included as covariates. Several other events were examined including grade 3 or 4 platelet toxicity as defined by NCI CTC, platelet transfusion, and the need for hematologically driven chemotherapy dose reduction. […] For present/absent outcomes as these, a mixed model repeated measures analysis (using the present/absent outcomes as the best response for each course) was performed. The mixed model ANOVA's using presence/absence of the outcome was adjusted for the covariates listed above.
Analyses were performed using Version 8.01 of SAS® for Windows.

SMILES: O=S([O-])([O-])=S.[Na+].[Na+] [STS, sodium thiosulfate]
- adverse effects caused by high-dose STS (16 or 20 grams/m^2 i.v., National Cancer Institute CTC, version 2.0): transient hypematremia, hypertension, and controllable grade II nausea and vomiting
- patients requiring dose reduction of carboplatin (BBBD with STS): no patients
- Platelet Nadir <20 × 10^3/mm^3, percent of carboplatin courses (BBBD/STS, 129 courses): 1% courses
- Platelet Transfusions, percent of carboplatin courses (BBBD/STS, 129 courses): 2% courses
- Dose Reductions of carboplatin, percent of patients (BBBD/STS, n = 29): 0% pts
- Platelet Transfusions, percent of patients (BBBD/STS, n = 29): 7% pts
- Platelet Nadir <20 × 10^3/mm^3, percent of patients (BBBD/STS, n = 29, carboplatin, cyclophosphamide, etoposide phosphate, STS i.v. 20 grams/m^2 at 4 h (and 16 grams/m^2 at 8 h) after carboplatin): 4% pts
- grade 3 or 4 white blood cell toxicity, treatment groups with vs without STS (NCI CTC): no significant difference among treatment groups
- grade 3 or 4 platelet toxicity, treatment groups with vs without STS (NCI CTC, adjusted for age at first carboplatin treatment, p=0.14): no significant difference among the treatment groups
- rates of dose reduction of carboplatin, treatment groups with vs without STS (Pearson chi-square test): difference between the treatment groups was significant
- platelet transfusion (present or absent), treatment groups with vs without STS (mixed model, p=0.035): significant difference between the treatment groups
- platelet nadir <20×10^3/mm^3 (binary), treatment groups with vs without STS (mixed-model analysis of variance controlling for KPS≧70 and prior chemotherapy, p=0.0002): significant difference among the two treatment groups
- estimated probabilities of platelet transfusions (patients treated with BBBD and STS, mixed model estimate (22.4% for BBBD without STS)): 9.0%
